Measurements published in ChEMBL document CHEMBL3885861, “Open TG-GATES”.

Organism: Rattus norvegicus
Experiment: Open TG-GATES - Regimen: Single
Assay type: toxicity, organism-based, Sprague-Dawley
Set-up: regimen Single, gender Male, age 6 weeks
Conditions: in vivo, po, 1000 mg/kg, route gavage, dose level High; for APTT / Bas / Eos / Fbg / Hb / Ht / Lym / MCH / MCHC / MCV / Mono / Neu / PT / Plat / RBC / Ret / WBC: tissue Blood; for KIDNEY_L / KIDNEY_R / KIDNEY_TOTAL: tissue Kidney; for LIVER: tissue Liver; for A/G / ALP / ALT / AST / BUN / CRE / Ca / Cl / DBIL / GLC / IP / K / LDH / Na / PL / RALB / TBIL / TC / TG / TP / gamma-GTP: tissue Plasma

Cc1nnc2n1-c1ccc(Cl)cc1C(c1ccccc1Cl)=NC2 [TRIAZOLAM]
TERMINAL_BW (3 h): 193.6 g | APTT (3 h): 16 s | Bas (3 h): 0% | Eos (3 h): 1% | Fbg (3 h): 277.8 mg/dL | Hb (3 h): 13.8 g/dL | Ht (3 h): 41.7% | Lym (3 h): 72% | MCH (3 h): 20.9 pg | MCHC (3 h): 33.2% | MCV (3 h): 63 fL | Mono (3 h): 3.2% | Neu (3 h): 23% | PT (3 h): 13.4 s | Plat (3 h): 135.1 x10_4/uL | RBC (3 h): 663 x10_4/ul | Ret (3 h): 9.1% | WBC (3 h): 64.9 x10_2/uL | KIDNEY_L (3 h): 0.9 g | KIDNEY_R (3 h): 0.9 g | KIDNEY_TOTAL (3 h): 1.8 g | LIVER (3 h): 8.3 g | A/G (3 h): 0.9 | ALP (3 h): 1289.6 IU/L | ALT (3 h): 38.8 IU/L | AST (3 h): 72 IU/L | BUN (3 h): 9.4 mg/dL | CRE (3 h): 0.1 mg/dL | Ca (3 h): 11 mg/dL | Cl (3 h): 102.6 meq/L | DBIL (3 h): 0.008 mg/dL | GLC (3 h): 174.6 mg/dL | IP (3 h): 10.4 mg/dL | K (3 h): 4.3 meq/L | LDH (3 h): 97.8 IU/L | Na (3 h): 139.6 meq/L | PL (3 h): 148.8 mg/dL | RALB (3 h): 2.4 g/dL | TBIL (3 h): 0.064 mg/dL | TC (3 h): 78.2 mg/dL | TG (3 h): 50 mg/dL | TP (3 h): 5.2 g/dL | gamma-GTP (3 h): 1 IU/L | TERMINAL_BW (6 h): 193.6 g | APTT (6 h): 18.3 s | Bas (6 h): 0% | Eos (6 h): 0.6% | Fbg (6 h): 282 mg/dL | Hb (6 h): 13.9 g/dL | Ht (6 h): 42.3% | Lym (6 h): 75.8% | MCH (6 h): 20.6 pg | MCHC (6 h): 32.8% | MCV (6 h): 62.8 fL | Mono (6 h): 2.2% | Neu (6 h): 20.4% | PT (6 h): 13.5 s | Plat (6 h): 122.7 x10_4/uL | RBC (6 h): 674 x10_4/ul | Ret (6 h): 8.5% | WBC (6 h): 87.5 x10_2/uL | KIDNEY_L (6 h): 0.9 g | KIDNEY_R (6 h): 0.9 g | KIDNEY_TOTAL (6 h): 1.8 g | LIVER (6 h): 8.3 g | A/G (6 h): 0.9 | ALP (6 h): 1325.6 IU/L | ALT (6 h): 36 IU/L | AST (6 h): 67.4 IU/L | BUN (6 h): 10 mg/dL | CRE (6 h): 0.1 mg/dL | Ca (6 h): 11.2 mg/dL | Cl (6 h): 103.2 meq/L | DBIL (6 h): 0.012 mg/dL | GLC (6 h): 184.2 mg/dL | IP (6 h): 10.9 mg/dL | K (6 h): 4.5 meq/L | LDH (6 h): 87.2 IU/L | Na (6 h): 141.6 meq/L | PL (6 h): 162.8 mg/dL | RALB (6 h): 2.5 g/dL | TBIL (6 h): 0.056 mg/dL | TC (6 h): 85.4 mg/dL | TG (6 h): 68.2 mg/dL | TP (6 h): 5.3 g/dL | gamma-GTP (6 h): 1.6 IU/L | TERMINAL_BW (9 h): 192.1 g | APTT (9 h): 16.7 s | Bas (9 h): 0% | Eos (9 h): 0.6% | Fbg (9 h): 282.6 mg/dL | Hb (9 h): 13.3 g/dL | Ht (9 h): 40.5% | Lym (9 h): 74.2% | MCH (9 h): 20.9 pg | MCHC (9 h): 32.8% | MCV (9 h): 63.8 fL | Mono (9 h): 2.4% | Neu (9 h): 21.6% | PT (9 h): 13.9 s | Plat (9 h): 116.9 x10_4/uL | RBC (9 h): 635.4 x10_4/ul | Ret (9 h): 9.5% | WBC (9 h): 86.1 x10_2/uL | KIDNEY_L (9 h): 0.9 g | KIDNEY_R (9 h): 0.9 g | KIDNEY_TOTAL (9 h): 1.8 g | LIVER (9 h): 7.6 g | A/G (9 h): 0.9 | ALP (9 h): 1384.4 IU/L | ALT (9 h): 41.8 IU/L | AST (9 h): 73.4 IU/L | BUN (9 h): 9 mg/dL | CRE (9 h): 0.1 mg/dL | Ca (9 h): 10.9 mg/dL | Cl (9 h): 104 meq/L | DBIL (9 h): 0.014 mg/dL | GLC (9 h): 177.8 mg/dL | IP (9 h): 10.6 mg/dL | K (9 h): 4.4 meq/L | LDH (9 h): 84.2 IU/L | Na (9 h): 141 meq/L | PL (9 h): 148 mg/dL | RALB (9 h): 2.5 g/dL | TBIL (9 h): 0.064 mg/dL | TC (9 h): 76.4 mg/dL | TG (9 h): 56.4 mg/dL | TP (9 h): 5.1 g/dL | gamma-GTP (9 h): 1.4 IU/L | TERMINAL_BW (24 h): 208.3 g | APTT (24 h): 17 s | Bas (24 h): 0.2% | Eos (24 h): 0.8% | Fbg (24 h): 290.2 mg/dL | Hb (24 h): 13.9 g/dL | Ht (24 h): 41.6% | Lym (24 h): 75.4% | MCH (24 h): 20.8 pg | MCHC (24 h): 33.4% | MCV (24 h): 62.2 fL | Mono (24 h): 2.8% | Neu (24 h): 20.4% | PT (24 h): 13 s | Plat (24 h): 128.9 x10_4/uL | RBC (24 h): 669.2 x10_4/ul | Ret (24 h): 8.2% | WBC (24 h): 97.7 x10_2/uL | KIDNEY_L (24 h): 0.9 g | KIDNEY_R (24 h): 0.9 g | KIDNEY_TOTAL (24 h): 1.8 g | LIVER (24 h): 9.9 g | A/G (24 h): 0.9 | ALP (24 h): 1921.8 IU/L | ALT (24 h): 44.8 IU/L | AST (24 h): 60.2 IU/L | BUN (24 h): 13.6 mg/dL | CRE (24 h): 0.2 mg/dL | Ca (24 h): 11.5 mg/dL | Cl (24 h): 100.8 meq/L | DBIL (24 h): 0.014 mg/dL | GLC (24 h): 175.6 mg/dL | IP (24 h): 10 mg/dL | K (24 h): 4.3 meq/L | LDH (24 h): 84.4 IU/L | Na (24 h): 141.4 meq/L | PL (24 h): 167.6 mg/dL | RALB (24 h): 2.7 g/dL | TBIL (24 h): 0.058 mg/dL | TC (24 h): 85.2 mg/dL | TG (24 h): 84.2 mg/dL | TP (24 h): 5.6 g/dL | gamma-GTP (24 h): 1 IU/L
